According to the supplement of paper PMC5908809:

Columns and labels:
[1] = test system: normal NK cells expanded with K562-aAPC; experiment: percent inhibition of viability; higher = more inhibition; details: 72 h, IL-2 2.5 ng/mL
Description: (§1)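 Drug sensitivity and resistance testing on K562-aAPC-expanded normal NK cells: 5 concentrations (10-fold steps over a 10,000-fold range), 72 h at 37 °C, viability by CellTiter-Glo normalised to DMSO and benzethonium chloride controls; DSS from the fitted curve.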

[2] = test system: DERL-7 (IL-2 2.5 ng/mL); experiment: as above; details: 72 h
[3] = test system: IMC-1 (IL-2 20 ng/mL); experiment: as above; details: 72 h
[4] = test system: KAI3 (IL-2 2.5 ng/mL); experiment: as above; details: 72 h
[5] = test system: KHYG-1 (IL-2 2.5 ng/mL); experiment: as above; details: 72 h
[6] = test system: NK-92 (IL-2 2.5 ng/mL); experiment: as above; details: 72 h
[7] = test system: NK-YS (IL-2 2.5 ng/mL); experiment: as above; details: 72 h
[8] = test system: NKL (IL-2 2.5 ng/mL); experiment: as above; details: 72 h
[9] = test system: SNK-6 (IL-2 2.5 ng/mL); experiment: as above; details: 72 h
[10] = test system: YT (IL-2 2.5 ng/mL); experiment: as above; details: 72 h
[11] = test system: normal primary NK cells, pool 1 (3 donors) (IL-2 2.5 ng/mL); experiment: as above; details: 72 h
[12] = test system: normal primary NK cells, pool 1 (3 donors), resting (IL-2 0 ng/mL); experiment: as above; details: 72 h
[13] = test system: normal primary NK cells, pool 2 (3 donors) (IL-2 2.5 ng/mL); experiment: as above; details: 72 h
[14] = test system: normal primary NK cells, pool 3 (3 donors) (IL-2 2.5 ng/mL); experiment: as above; details: 72 h
[15] = test system: normal NK cells expanded with K562-aAPC; experiment: drug sensitivity score (DSS) (DSS units); higher = more sensitive; extreme values may be limits of the assay; details: 72 h; IL-2 2.5 ng/mL
Description: as §1

[16] = test system: DERL-7 (IL-2 2.5 ng/mL); experiment: as above; details: 72 h
[17] = test system: IMC-1 (IL-2 20 ng/mL); experiment: as above; details: 72 h
[18] = test system: KAI3 (IL-2 2.5 ng/mL); experiment: as above; details: 72 h
[19] = test system: KHYG-1 (IL-2 2.5 ng/mL); experiment: as above; details: 72 h
[20] = test system: NK-92 (IL-2 2.5 ng/mL); experiment: as above; details: 72 h
[21] = test system: NK-YS (IL-2 2.5 ng/mL); experiment: as above; details: 72 h
[22] = test system: NKL (IL-2 2.5 ng/mL); experiment: as above; details: 72 h
[23] = test system: SNK-6 (IL-2 2.5 ng/mL); experiment: as above; details: 72 h
[24] = test system: YT (IL-2 2.5 ng/mL); experiment: as above; details: 72 h
[25] = test system: normal primary NK cells, pool 1 (3 donors) (IL-2 2.5 ng/mL); experiment: as above; details: 72 h
[26] = test system: normal primary NK cells, pool 1 (3 donors), resting (IL-2 0 ng/mL); experiment: as above; details: 72 h
[27] = test system: normal primary NK cells, pool 2 (3 donors) (IL-2 2.5 ng/mL); experiment: as above; details: 72 h
[28] = test system: normal primary NK cells, pool 3 (3 donors) (IL-2 2.5 ng/mL); experiment: as above; details: 72 h

O=C(Nc1cccnc1)N1CCC(Cc2cccc(Oc3ccc(C(F)(F)F)cn3)c2)CC1 [PF-3845] (max concentration tested 10000 nM)
percent inhibition of viability [%]
Details	1 nM	10 nM	100 nM	1000 nM	10000 nM
[1]	-4.39	-6.94	-8.54	-9.15	-10
[2]	3.63	-4.44	5.89	0.51	46.1
[3]	0.9	-0.47	4.7	13.8	26.2
[4]	-1.12	-6.82	4.46	0.3	25
[5]	-4.25	-6.89	-4.44	4.55	60.7
[6]	-1.76	-21.3	-8.96	4.25	35.6
[7]	4.37	-3.27	0.47	10.5	75
[8]	-5.58	-15.9	-8.48	16.5	66.2
[9]	-10	-1.35	-9.77	-1.56	25.3
[10]	-2.27	-9.8	1.6	5.87	44.7
[11]	-3.8	-8.73	-11.2	2.66	64.3
[12]	-8.45	-13.6	-17.7	-4.4	74
[13]	-12.4	3.71	-1.82	-3.09	43.9
[14]	-11.4	-5.5	-11.2	-10.4	19.9

Details	drug sensitivity score
[15]	0
[16]	2.45
[17]	2.22
[18]	0.99
[19]	4
[20]	2.38
[21]	5.91
[22]	6.2
[23]	0.86
[24]	3.29
[25]	3.87
[26]	3.74
[27]	2
[28]	0.32
